The subject of data set [1] is S. pyogenes ATCC 51339. Description: MIC microdilution assay. Conditions: S. pyogenes ATCC 51339; broth +5% defibrinated sheep blood; 35±2° C. 18 to 20 hours; two values given. Format: cell-based, Steptococcus pyogenes. How it is done:
(§1) Strain numbers starting with “ATCC” were acquired from the American Type Culture Collection (Manassas, VA), while strain numbers starting with “CDC” were acquired from the Centers for Disease Control and Prevention (Atlanta, GA). All strains were maintained as −80° C. frozen glycerol stocks. S. aureus and P. aeruginosa were grown overnight on Tryptic Soy Agar (TSA) plates at 35±2° C., ambient atmosphere, while S. pyogenes was grown overnight on TSA+5% defibrinated sheep blood at 35±2° C., 5% CO2. All fungal species (i.e. C. albicans, C. auris and C. herbarum) were grown on Sabouraud Dextrose Agar (SDA) plates. C. herbarum was grown at 25±2° C. for 5 to 7 days, while all other fungal strains were grown at 35±2° C. overnight.
(§2) Test articles Compound 2 (batch #2G13A0.368) and Compound 23 (batch #2G17A0.372) were received and stored at 4° C. The antibiotic Tobramycin and antifungal Amphotericin B were used as quality control (QC) compounds for the MIC assay. Stock solutions of 3.2 mg/mL Tobramycin (Sigma-Aldrich, cat #T1783-500MG) and 3.2 mg/mL Amphotericin B (CP Lab Chemicals, cat #TOK-A007-1G) were prepared in sterile ultrapure water.
(§3) For bacteria strains, a few colonies of each strain were collected with a sterile swab and used to make a McFarland 0.5 standard solution (approximately 1×10^8 CFU/mL) in sterile PBS. The McFarland was then diluted 1:180 in Cation Adjusted Muller-Hinton Broth (CAMHB) for S. aureus and P. aeruginosa, and in […]+5% defibrinated sheep blood for S. pyogenes. 90 μL of this inoculum was combined with 10 μL of the 10× test article in a 96-well plate for a final concentration of 1×.
(§4) All bacterial-strain MIC 96-well plates were incubated at 35±2° C. for 18 to 20 hours, while all Candida MIC 96-well plates were incubated at 35±2° C. for 24 to 48 hours. C. herbarum MIC 96-well plates were incubated at 25±2° C. for 3 to 5 days, until growth was visible in the growth control wells. After incubation, the 96-well plates were examined visually and on a spectrophotometer at absorbance OD650. […]

The subject of a further data set is Candida auris CDC 0385. Description: MIC microdilution assay (Example 32). To be noted: C. auris CDC 0385; RPMI media; 35±2° C. 24 to 48 hours; two values given. Format: cell-based. How it is done:
(§5) Strain IDs starting with “ATCC” were acquired from the American Type Culture Collection (Manassas, VA), strain IDs starting with “Eurofins” were acquired from Eurofins (Herndon, VA), while strain IDs starting with “CDC” were acquired from the Centers for Disease Control and Prevention (Atlanta, GA). All strains were maintained as −80° C. frozen glycerol stocks. S. aureus and P. aeruginosa were grown overnight on Tryptic Soy Agar (TSA) plates at 35±2° C., ambient atmosphere, while S. pyogenes was grown overnight on TSA+5% defibrinated sheep blood at 35±2° C., 5% CO2. C. jejuni was grown for 48 hours on TSA+5% defibrinated sheep blood at 35±2° C., in a microaerophilic environment generated by CampyGen sachet. All fungal species (i.e. C. albicans and C. auris) were grown overnight on Sabouraud Dextrose Agar (SDA) plates at 35±2° C., ambient atmosphere.
(§6) Test article Compound 1 (batch #7G30A9.203) was stored at 4° C. The antibiotic Tobramycin and antifungal Amphotericin B were used as quality control (QC) compounds for the MIC assay. Stock solutions of 3.2 mg/mL Tobramycin (Sigma-Aldrich, cat #T1783-500MG) and 3.2 mg/mL Amphotericin B (CP Lab Chemicals, cat #TOK-A007-1G) were prepared in sterile ultrapure water.
(§7) For bacteria strains, a few colonies of each strain were collected with a sterile swab and used to make a McFarland 0.5 standard solution (approximately 1×10^8 CFU/mL) in sterile PBS. The McFarland was then diluted 1:180 in Cation Adjusted Muller-Hinton Broth (CAMHB) for S. aureus and P. aeruginosa. S. pyogenes McFarland was diluted 1:180 in CAMHB+5% defibrinated sheep blood, while C. jejuni McFarland was diluted 1:180 in CAMHB+5% laked horse blood. 90 μL of this inoculum was combined with 10 μL of the 10× test article in a 96-well plate for a final concentration of 1×.
(§8) For the yeasts C. albicans and C. auris, a McFarland 0.5 standard solution in sterile PBS was similarly prepared (approximately 1×10^6 CFU/mL) and was subsequently diluted 1:180 in RPMI 1640 media buffered with 0.165 M MOPS at pH 7.0 (herein referred to as “RPMI media”). 90 μL of the Candida inoculum was combined with 10 μL of the 10× test article in a 96-well plate for a final concentration of 1×.
(§9) Except for C. jejuni, all bacterial-strain MIC 96-well plates were incubated at 35±2° C. for 18 to 20 hours, ambient atmosphere. C. jejuni was incubated at 35±2° C. for 48 hours, under microaerophilic condition. All Candida MIC 96-well plates were incubated at 35±2° C. for 24 to 48 hours, ambient atmosphere, until growth in control wells were observed. After incubation, the 96-well plates were examined visually and on a spectrophotometer at absorbance OD650. MIC is defined as the lowest concentration of a compound in which no visible growth is observed.

Data set [2] has as its system Candida albicans ATCC 90028. Put plainly: MIC microdilution assay (Example 32). Format: cell-based. Conditions: C. albicans ATCC 90028 (quality control); RPMI media; 35±2° C. 24 to 48 hours; two values given. As for the experimental part: as §5, §6, §7, §8, §9
The test system of data set [3] is Cladosporium herbarum ATCC MYA-4682. Put plainly: MIC microdilution assay. Type of data set: cell-based. Conditions: C. herbarum ATCC MYA-4682; RPMI media; 25±2° C. 3 to 5 days; two values given. As for the experimental part: as §1
Test articles Compound 2 (batch #2G13A0.368) and Compound 23 (batch #2G17A0.372) were received and stored at 4° C. The antibiotic Tobramycin and antifungal Amphotericin B were used as quality control (QC) compounds for the MIC assay. […]
All bacterial-strain MIC 96-well plates were incubated at 35±2° C. for 18 to 20 hours, while all Candida MIC 96-well plates were incubated at 35±2° C. for 24 to 48 hours. […] After incubation, the 96-well plates were examined visually and on a spectrophotometer at absorbance OD650. […]

The test system of data set [4] is Staphylococcus aureus ATCC 33591. Description: MIC microdilution assay. Type of data set: cell-based. Conditions: S. aureus ATCC 33591; CAMHB; 35±2° C. 18 to 20 hours; two values given. How it is done: as §1, §2, §3, §4
Data set [5] deals with Candida auris CDC 0381. Description: MIC microdilution assay. Type of data set: cell-based. To be noted: C. auris CDC 0381; RPMI media; 35±2° C. 24 to 48 hours; two values given. As for the experimental part: as §1, §2, §3, §8
(§10) All bacterial-strain MIC 96-well plates were incubated at 35±2° C. for 18 to 20 hours, while all Candida MIC 96-well plates were incubated at 35±2° C. for 24 to 48 hours. C. herbarum MIC 96-well plates were incubated at 25±2° C. for 3 to 5 days, until growth was visible in the growth control wells. After incubation, the 96-well plates were examined visually and on a spectrophotometer at absorbance OD650. MIC is defined as the lowest concentration of a compound in which no visible growth is observed.

For data set [6], the system named is Candida albicans ATCC 90028. Description: MIC microdilution assay. Type of data set: cell-based. Conditions: C. albicans ATCC 90028; RPMI media; 35±2° C. 24 to 48 hours; two values given. How it is done: as §1, §2, §3, §8, §10
The subject of data set [7] is Pseudomonas aeruginosa Eurofins 1674623. Description: MIC microdilution assay (Example 32). Type of data set: cell-based. Conditions: P. aeruginosa Eurofins 1674623; CAMHB; 35±2° C. 18 to 20 hours; two values given. How it is done: as §5, §6, §7, §9
For data set [8], the system named is Acinetobacter baumannii Eurofins 1674627. Put plainly: MIC microdilution assay (Example 32). Format: cell-based. Conditions: A. baumannii Eurofins 1674627; 35±2° C. 18 to 20 hours; two values given. As for the experimental part: as §5, §6, §7, §9
The test system of data set [9] is Pseudomonas aeruginosa ATCC 27853. Description: MIC microdilution assay (Example 32). Type of data set: cell-based. Conditions: P. aeruginosa ATCC 27853 (quality control); CAMHB; 35±2° C. 18 to 20 hours; two values given. How it is done:
as §5, §6, §7, §9

The test system of data set [10] is Pseudomonas aeruginosa CDC 0248. Put plainly: MIC microdilution assay (Example 32). Conditions: P. aeruginosa CDC 0248; CAMHB; 35±2° C. 18 to 20 hours; two values given. Format: cell-based. As for the experimental part:
as §5, §6, §7, §9

Data set [11] concerns Streptococcus pyogenes Eurofins 2065755. Put plainly: MIC microdilution assay (Example 32). Type of data set: cell-based. To be noted: S. pyogenes Eurofins 2065755; CAMHB+5% defibrinated sheep blood; 35±2° C. 18 to 20 hours; two values given. How it is done: as §5, §6, §7, §9
Data set [12] deals with Campylobacter jejuni CDC 0413. Description: MIC microdilution assay (Example 32). Type of data set: cell-based. Conditions: C. jejuni CDC 0413; CAMHB+5% laked horse blood; 35±2° C. 48 hours, microaerophilic; two values given. How it is done:
as §5, §6, §7, §9

The subject of data set [13] is P. aeruginosa ATCC 27853. Description: MIC microdilution assay. Format: cell-based, Pseudomonas aeruginosa. To be noted: CAMHB, 35±2° C. 18 to 20 hours, two values given. How it is done:
as §1, §2, §3, §4

Data set [14] has as its system P. aeruginosa ATCC 27853. Description: MBC/MFC determination. Format: cell-based, Pseudomonas aeruginosa. To be noted: plated after 18 to 20 hours incubation, two values given. How it is done:
(§11) 10 μL of liquid from each test condition was plated on the appropriate agar media for each test strain. For bacteria strains, plating for MBC occurred after 18 to 20 hours incubation. For the Candida species, plating for MFC occurred after 48 hours incubation, while C. herbarum plating for MFC occurred 3 days after incubation when growth in growth control wells was visually observed. Once the liquid from the 96-well plate has been allowed to air dry in a biosafety cabinet, the agar plates were incubated under the appropriate conditions and colony formation was assessed. MBC/MFC is defined as the lowest concentration of a compound in which no colonies were recovered.

Data set [15] has as its system S. pyogenes ATCC 51339. Description: MBC/MFC determination. To be noted: plated after 18 to 20 hours incubation, two values given. Type of data set: cell-based, Steptococcus pyogenes. How it is done:
as §11

Data set [16] concerns Cladosporium herbarum ATCC MYA-4682. Description: MBC/MFC determination. Format: cell-based. To be noted: C. herbarum ATCC MYA-4682; plated 3 days after incubation; two values given. How it is done: as §11
Data set [17] deals with Candida auris CDC 0381. Description: MBC/MFC determination. Format: cell-based. Conditions: C. auris CDC 0381; plated after 48 hours incubation; two values given. How it is done: as §11
Data set [18] relates to Candida albicans ATCC 90028. Description: MBC/MFC determination. Format: cell-based. To be noted: C. albicans ATCC 90028; plated after 48 hours incubation; two values given. As for the experimental part:
as §11

Data set [19] can be described thus: Dissolution of isolated product in water. Type of data set: physicochemical. Conditions: observation.
The nature of the next data set: pH of aqueous solution. Type of data set: physicochemical. To be noted: 2% solution in water.

Values after ≈ are worked out from the molar mass of the structure shown. Values joined by “and” are separate entries in the source; they are usually repeats but may differ in a detail not shown here. Identical values can stand only once.

Turning to `C[C@@H]1[C@H](O)[C@@H](C)/C=C/C=C/C=C/C=C/C=C/C=C/C=C/[C@H](O[C@@H]2O[C@H](C)[C@@H](O)[C@H](N)[C@@H]2O)C[C@@H]2O[C@](O)(C[C@@H](O)C[C@@H](O)[C@H](O)CC[C@@H](O)C[C@@H](O)CC(=O)O[C@H]1C)C[C@H](O)[C@H]2C(=O)O` [Amphotericin B], the MIC in the data set on S. pyogenes ATCC 51339 [1] is greater than 32 µg/mL; against Candida auris CDC 0385, 4 µg/mL (≈ 4.33 µM); in data set [2], 1 µg/mL (≈ 1.08 µM); in [3] it was no more than 0.03 µg/mL; in data set [4], greater than 32 µg/mL; in the data set on Candida auris CDC 0381 [5] it was 1 µg/mL (≈ 1.08 µM). In addition, the MIC in [6] was 2 µg/mL (≈ 2.16 µM); in [7], greater than 32 µg/mL; in data set [8] it was greater than 32 µg/mL; in data set [9], greater than 32 µg/mL; in data set [10] it was greater than 32 µg/mL; in [11], greater than 32 µg/mL. Also, the MIC (in [12]; in the data set with P. aeruginosa ATCC 27853 [13]) was greater than 32 µg/mL each time.

On to `CCCCCCCCCCCCCCCCCC[N+](C)(C)CCC[Si](OCC(CO)(CO)NCC(O)CS(=O)(=O)[O-])(OCC(CO)(CO)NCC(O)CS(=O)(=O)[O-])OCC(CO)(CO)NCC(O)CS(=O)(=O)O.[Cl-].[Na+].[Na+]` (stereo not drawn) [Compound 2], for which the minimum inhibitory concentration (MIC) in [4] was 1 µg/mL; against Candida auris CDC 0381 [5], 1 µg/mL; in the data set on P. aeruginosa ATCC 27853 [13], greater than 64 µg/mL. Besides, the MBC/MFC was greater than 64 µg/mL against P. aeruginosa ATCC 27853 [14]; >64 µg/mL and 64 µg/mL in the data set on S. pyogenes ATCC 51339 [15]; 2 µg/mL in data set [16]; 1 µg/mL against Candida auris CDC 0381 [17]; 2 µg/mL and 1 µg/mL in [18].

Take `CCCCCCCCCCCCCCCCCC[N+](C)(C)CCC[Si](OCC(CO)(CO)NCC(O)CS(=O)(=O)[O-])(OCC(CO)(CO)NCC(O)CS(=O)(=O)O)OCC(CO)(CO)NCC(O)CS(=O)(=O)O` (stereo not drawn) [Example 24, monosodium mono(8-(3-(dimethyl(octadecyl)ammonio)propyl)-2,14-dihydroxy-8-(3-hydroxy-2-((2-hydroxy-3-sulfopropyl)amino)-2-(hydroxymethyl)propoxy)-5,5,11,11-tetrakis(hydroxymethyl)-7,9-dioxa-4,12-diaza-8-silapentadecane-1,15-disulfonate); chloride]: the dissolution in water result in data set [19] was “readily dissolved in water”. For the same molecule, the pH of solution in “pH of aqueous solution” is 7.65.

(Values after patent US12264170B2, “Antimicrobial organosilanes” (TOPIKOS SCIENTIFIC, INC., priority 2019, dated 2025).)
